Measured values reported in paper PMC7336998, “Discovery of secondary sulphonamides as IDO1 inhibitors with potent antitumour effects in vivo” (Journal of Enzyme Inhibition and Medicinal Chemistry, 2020).
Read-outs that look alike come from different tables or passages of the source.

How the values were obtained:
[1] = test system: CT26 colon carcinoma; assay: CT26 colon carcinoma xenograft in immunocompetent BALB/c mice (tumour growth, H&E, IHC, TUNEL, spleen FACS); type: in vivo; conditions: CT26 tumour tissue, BALB/c mice, 25 mg/kg i.p
Method: BALB/c mice (6–8 weeks old, 18–22 g) were supplied by Model Animal Research Centre of Nanjing University (Nanjing, China). Mice were maintained under standard specific-pathogen-free (SPF) conditions (21 ± 2 °C and 12-h light: dark cycle). Animal welfare and experimental procedures were carried out strictly in accordance with the Guide for the Care and Use of Laboratory Animals (The Ministry of Science and Technology of China, 2006) and the related ethical regulations of our university. All efforts were made to minimise animals’ suffering and to reduce the number of animals used. Mouse colon cancer cells (CT26) and melanoma cells (B16F1) were cultured and collected by centrifugation (1000 rpm, 5 min) and washed twice with ice-cold PBS. Then cells were diluted to 1 × 10^7/ml and 1 × 10^6 CT26/B16F1 cells (in 0.1 ml PBS) were injected subcutaneously into the right flanks of mice. All mice formed tumours three days after injection. Then mice were randomly distributed into five groups (n = 10/8) according to tumour volumes. 5d ([…], 12.5 mg/kg) were administered (i.g) to each group respectively every day. 5-FU (25 mg/kg) and Cis-platinum (1 mg/kg) were administered (i.p) every three days. Tumour length and tumour width were measured with a Vernier calliper every three days. Tumour volumes were measured and calculated using the equation volume = a × b^2/2, where “a” is the maximal […] and “b” is maximal orthogonal width. After the administration were completed, mice were weighed, euthanized, and tumours were removed and the weight were taken.
(§1) For immunohistochemistry staining, the sections were deparaffinized, rehydrated, and washed in 1% PBS-Tween 20, and then treated with 2% hydrogen peroxide, blocked with 3% goat serum (Life Technology, 16210–064) and incubated for 2 h at room temperature with specific primary antibodies. Then the slides were incubated with streptavidin-HRP (Shanghai Gene Company, GK500705) for 40 min, then stained with DAB (Shanghai Gene Company, GK500705) substrate and counter-stained with haematoxylin. Images were acquired by microscopy (Olympus IX51).
Given that it was the most prominent inhibitor in vitro, we chose compound 5d for further pharmacodynamic evaluation in vivo. Bowel cancer is the third leading cause of cancer in the world, thus we first evaluated the efficacy of compound 5d on the growth of murine CT26 colon carcinoma xenograft model in immunocompetent BALB/c mice. Fluorouracil (5-FU) is one of the most commonly used drugs to different cancers including bowel cancer, and was used as the positive control. The CT26 tumour-bearing mice were treated with 5d (3.125, 6.25, 12.5 mg/kg, i.g, every day) or 5-FU (25 mg/kg, i.p, […]). Tumour volumes were measured every two days for 14 days.
Figure 7. Compound 5d suppressed colon cancer growth in immunocompetent mice. 1 × 10^6 CT26 cells were transplanted subcutaneously into the armpit of the BALB/c mice. Three days after transplantation, mice were randomly allocated to vehicle control or treatment groups (n = 10). Drugs were administered on days 1–14. Tumour volume (A) and mice body weight (B) were recorded. After sacrifice, solid tumours were separated and weighed (C, D). Data represent mean ± SEM, n = 10, *p < 0.05, **p < 0.01 vs vehicle.
In order to further observe morphological changes in tumour tissues after administration of compound 5d, the tumour tissue sections obtained from the BALB/c mice bearing CT26 colorectal tumours were stained with haematoxylin-eosin (H&E) to highlight different tissue structures, such as the nucleus and cytoplasm.
Then, to understand the mechanism of tumour cell death, we detected the level of proliferating cell nuclear antigen (PCNA) protein and tumour cell apoptosis by immunohistochemistry (IHC) and terminal deoxynucleotidyl transferase dUTP nick end labelling (TUNEL) experiments, respectively. […]

[2] = test system: CT26 colon carcinoma; assay: CT26 colon carcinoma xenograft in immunodeficient BALB/c nude mice; type: in vivo, mouse; conditions: BALB/c nude mice, 25 mg/kg i.p, vs vehicle
Method: Eight-week-old male BALB/c nude mice, weighing 18–22 g, were supplied by Model Animal Research Centre of Nanjing University (Nanjing, China). 1 × 10^7/ml and 1 × 10^6 CT26 cells (in 0.1 ml PBS) were injected subcutaneously into the right flanks of mice. After CT26 xenograft BALB/c nude mouse model was established, all mice were randomly divided into three groups (n = 8). 5d (12.5 mg/kg) were administered (i.g) every day and 5-FU (25 mg/kg) awere administered (i.p) every three days. The following experimental procedures were similar to the described above.
as §1
Then, in order to clarify whether the in vivo antitumour efficacy of compound 5d was related to the mouse immune system, we repeated the above experiment in immunodeficient nude mice. Briefly, BALB/c nude mice bearing established CT26 colon carcinoma xenograft were treated with compound 5d and 5-FU for 10 days.
Figure 8. […] 1 × 10^6 CT26 cells were transplanted subcutaneously into the armpit of immunodeficient BALB/c nude mice. Three days after transplantation, mice were randomly allocated to vehicle control or treatment groups (n = 8). Drugs were administered on days 1–9. (A) Tumour volume and mouse body weight (B) were recorded. After sacrifice, solid tumours were separated and weighed (C, D). Data represent mean ± SEM, n = 8, *p < 0.05, **p < 0.01 vs vehicle.
To verify the above conclusions, we further performed H&E and IHC staining on the nude mouse CT26 tumour tissues. […] These findings further supported the above conclusions.

[3] = biological target: T1, IDO1 (Homo sapiens, UniProt P14902); assay: HeLa cell-based IDO1/kynurenine assay; conditions: for IC50: HeLa cells, IFN-γ induced IDO1, kynurenine readout; for inhibition at 30 µM: percentage inhibition at 30 μM, IFN-γ-treated HeLa cells, kynurenine in media; for potency increase as compared with the hit BS-1: ratio of HeLa IC50 values
T1 construct: a human cervical cancer cell line HeLa that endogenously expresses IDO1 upon IFN-γ treatment; endogenous in cells; host or cells: HeLa cells treated with human IFN-γ
T1 sequence (P14902 whole entry): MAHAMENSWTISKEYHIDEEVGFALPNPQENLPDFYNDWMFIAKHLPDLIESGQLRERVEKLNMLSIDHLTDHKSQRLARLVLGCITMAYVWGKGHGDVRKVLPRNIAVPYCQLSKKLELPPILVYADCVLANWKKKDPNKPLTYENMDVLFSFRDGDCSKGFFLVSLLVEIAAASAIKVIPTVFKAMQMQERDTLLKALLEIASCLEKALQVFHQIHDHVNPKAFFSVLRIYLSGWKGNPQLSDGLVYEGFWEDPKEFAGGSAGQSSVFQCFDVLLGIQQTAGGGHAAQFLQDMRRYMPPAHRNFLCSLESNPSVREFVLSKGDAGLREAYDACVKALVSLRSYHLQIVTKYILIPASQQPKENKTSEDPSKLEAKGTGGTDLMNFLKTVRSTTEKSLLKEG
Method: (§2) The main bioassays performed in the study, including HeLa cell-based IDO1/kynurenine assay, Western blot analysis, T cell proliferation and Treg cell differentiation experiments, were carried out as described previously.
It is well known that IDO1 is broadly expressed in human cancers and is induced by pro-inflammatory cytokines, such as interferon gamma (IFN-γ) and tumour necrosis factor alpha (TNF-α)[41]. Here we utilised a human cervical cancer cell line HeLa that endogenously expresses IDO1 upon IFN-γ treatment to evaluate the IDO1 inhibitory activity of the synthesised compounds by measuring kynurenine secreted into the media. […] Thus, we also employed this cellular assay to detect false positive IDO1 inhibitors and cytotoxic compounds by measuring HeLa cell viability. Clinical candidate navoximod was used as an assay control.

[4] = test system: HeLa cells; assay: HeLa cell viability by MTT at the end of the IDO1/kynurenine assay; type: cell-based, human; conditions: under the experimental conditions of the IDO1 assay
From the text: It is well known that IDO1 is broadly expressed in human cancers and is induced by pro-inflammatory cytokines, such as interferon gamma (IFN-γ) and tumour necrosis factor alpha (TNF-α)[41]. Here we utilised a human cervical cancer cell line HeLa that endogenously expresses IDO1 upon IFN-γ treatment to evaluate the IDO1 inhibitory activity of the synthesised compounds by measuring kynurenine secreted into the media. This cell-based assay, as a rapid and simple method for determination IDO1/kynurenine, is closely related to the potency of the enzyme assay and has been widely used to identify various IDO1 inhibitors[19]^,[23]^,[29]^,[42]. In addition, cytotoxic compounds can reduce cell viability, which will decrease the IDO1 levels and then lower the conversion of tryptophan to kynurenine. Thus, we also employed this cellular assay to detect false positive IDO1 inhibitors and cytotoxic compounds by measuring HeLa cell viability. Clinical candidate navoximod was used as an assay control.
Furthermore, the viability of HeLa cells was evaluated by the MTT method at the end of the assay.

[5] = test system: IDO1 protein expression; assay: Western blot of IDO1 protein expression in IFN-γ-treated HeLa cells; type: cell-based, human; conditions: HeLa cells, IFN-γ 100 ng/mL 24 h, then compounds at their IC50 concentrations for 24 h
Method: as §2
To exclude the possibility that these secondary sulphonamides inhibit IDO1 activity by down-regulating IDO1 expression, we utilised Western blot to measure the expression of IDO1 protein in HeLa cells treated with different compounds.
Figure 3. […] (B) The greyscale scanning statistical results of A. (C) HeLa cells were incubated with compound 5d (3, 10, 30 μM) for 24 h. (D) The greyscale scanning statistical results of C. (E) HeLa cells were incubated with compound 5d (3, 10, 30 μM) for 48 h. (F) The greyscale scanning statistical results of E. Data are presented as means ± SEM (n = 3).

[6] = test system: naïve CD4+ T cells co-cultured with B16F1 melanoma cells; assay: T cell proliferation in B16F1-T cell co-culture (MTT); type: cell-based, mouse
Method: as §2
T lymphocytes are exceedingly sensitive to low tryptophan levels. Overactivation of the kynurenine pathway by high IDO1 expression leads to local tryptophan depletion, which can suppress T cell proliferation by activating the GCN2 kinase pathway and eventually result in T cell anergy. Here, to determine whether secondary sulphonamides could rescue IDO1-mediated blockade of T cell proliferation, we used a co-culture of IDO1-expressing B16F1 melanoma cells with naïve CD4^+ T cells to mimic the tumour microenvironment. Given that melanoma is a highly immunogenic tumour and IDO1 constitutively expresses in melanoma cells, B16F1 murine melanoma cell lines that express IDO1 were then used to co-culture with T cells. Naïve CD4^+ T cells were isolated from spleens of C57BL/6 mice.
Figure 4. Compounds 5d and 8 g could promote the proliferation of T cells. Based on the B16F1-T cell co-culture system, use MTT assay to test T cells proliferation. The Navoximod and compounds were added to the system at the concentration of 1.5 and 18 μM. Data represent mean ± SEM (n = 3).

[7] = test system: naïve CD4+ T cells co-cultured with B16F1 cells; assay: FoxP3+ Treg cell differentiation in B16F1-T cell co-culture (flow cytometry); type: cell-based, mouse; conditions: for FoxP3+ Treg cell differentiation (in words): Con A, 48 h
Method: as §2
Besides causing local tryptophan depletion, high IDO1 expression can also accumulate metabolites of kynurenine pathway. The elevated metabolites can not only induce effector T cell death directly through their cytotoxicity, but also promote the differentiation of naïve CD4^+ T cells into CD4^+ FoxP3^+ Treg cells by activating the AHR pathway. As a highly immunosuppressive subset of CD4^+ T cells, FoxP3^+ Treg cells are critical to the maintenance of immune homeostasis and are involved in tumour immune escape, thereby contributing to tumour development and progression. Therefore, we also utilised co-culture of B16F1 cells with naïve CD4^+ T cells to test whether the synthesised compounds could suppress IDO1 mediated Treg cell differentiation.
Figure 5. Compounds 5d and 8 g inhibited Treg cell differentiation in the cell co-culture system. (A) After co-cultured with B16F1 cells, T cells were collected. Surface staining was performed with CD4^+ FTTC and CD25^+ PE for 30 min at 4 °C. The cells were fixed and permeabilized with fixation buffer and permeabilization wash buffer. The intracellular staining was performed with FoxP3^+ APC for 20 min. The cells were then analysed by flow cytometry analysis. (B) Statistical analysis of result A. Data are represented as ± SEM (n = 3). *p < 0.05, **p < 0.01 vs T + B16F1. TEXT PRINTED IN THE PICTURE: (A) Navoximod: 8.1% (T + B16F1; 1.5 μM) | (A) 8g: 7.8% (T + B16F1; 18 μM) | (A) 5d: 2.1% (T + B16F1; 18 μM)

[8] = biological target: T1, IDO1; parameters: method as in earlier work; conditions: HeLa cell assay; earlier series of N-acetyl secondary sulphonamides; cited from earlier work

## O=c1[nH]cc(F)c(=O)[nH]1 [5-FU, Fluorouracil, reference compound]
[1]
  expression of PCNA protein (IHC): significantly reduced
  number of tumour cells (H&E staining): significantly reduced
  tumour cell apoptosis (TUNEL): apoptosis increased
[2]
  tumour growth: significantly suppressed tumour growth

## C=CC(=O)Nc1ccc(S(=O)(=O)NCc2cccc(Br)c2)cc1 [5l, N-(4-(N-(3-Bromobenzyl)sulfamoyl)phenyl)acrylamide]
[3]
  IC50: 6.64 µM
  inhibition at 30 µM: 89.1%
  potency increase as compared with the hit BS-1: 7.4 fold
[4]
  HeLa cell viability: without affecting the cell viability
[5]
  expression of IDO1 protein: did not influence IDO1 expression
other
  melting point: 156 to 158 °C

## C=CC(=O)Nc1ccc(S(=O)(=O)Nc2ccc(F)c(Cl)c2)cc1 [8g, N-(4-(N-(3-Chloro-4-fluorophenyl)sulfamoyl)phenyl)acrylamide]
[3]
  IC50: 3.76 µM
  inhibition at 30 µM: 93.2%
  potency increase as compared with the hit BS-1: 13.1 fold
[4]
  HeLa cell viability: without affecting the cell viability
[5]
  expression of IDO1 protein: did not influence IDO1 expression
[6]; 18 μM
  T cell proliferation: significant augmentation on T cell activity
[7]; 18 μM
  FoxP3+ Treg cells (flow cytometry): 7.8%
  FoxP3+ Treg cell differentiation (in words): significantly reduce FoxP3^+ Treg cell differentiation

## COc1ccc(CNS(=O)(=O)c2ccc(NC(C)=O)cc2)cc1 [N-(4-(N-(4-methoxybenzyl)sulfamoyl)phenyl)acetamide, reference compound]
[3]
  potency increase as compared with the hit BS-1: 8.4 fold
[8]
  IC50: 5.88 µM

## O[C@H](C[C@H]1c2c(F)cccc2-c2cncn21)[C@H]1CC[C@H](O)CC1 [Navoximod, (1R,4r)-4-((R)-2-((S)-6-fluoro-5H-imidazo[5,1-a]isoindol-5-yl)-1-hydroxyethyl)cyclohexan-1-ol, reference compound]
[6]; 1.5 μM
  T cell proliferation: significant augmentation on T cell activity
[7]; 1.5 μM
  FoxP3+ Treg cells (flow cytometry): 8.1%
  FoxP3+ Treg cell differentiation (in words): significantly reduce FoxP3^+ Treg cell differentiation
